Assay [1] deals with T1, human TRPM8 (Homo sapiens, UniProt Q7Z2W7).
T1 construct: expressed in transfected cells; host or cells: HEK-293/TRPM8 exon1 K3 cells
Kind of assay: Patch-clamp assay on TRPM8 channels (HEK-293/TRPM8 cells, menthol-evoked currents). Format: cell-based. The note with it: for inhibitory effect on menthol-evoked TRPM8 currents: dependence on concentration. How it is done: Patch clamp experiments for compounds 4, 5 and 9 were done as described. HEK-293/TRPM8 exon 1 cells were seeded 3 or 4 days before experiment at a concentration of 4 and 2.5 million cells, respectively, onto a T225 flask. Before each experiment, cells were washed two times with D-PBS without Ca^2+/Mg^2+ (Euroclone, Milan, Italy) and trypsinized with trypsin−EDTA (Sigma-Aldrich; diluted 1/10). Cells were suspended in 25 mL of EX-CELL ACF CHO medium (Sigma-Aldrich, Milan, Italy), 0.625 mL of HEPES (Lonza, Walkersville, USA), 0.25 mL of 100 × penicillin/streptomycin (Lonza, Walkersville, USA), 0.1 mL of soybean trypsin inhibitor 10 mg/mL (Sigma-Aldrich), and placed on the automated patch-clamp platform (QPatch 16X, Sophion Bioscience, Ballerup, Denmark). A stock solution of L-Menthol (1 M, 100% DMSO), used as reference agonist, was freshly prepared. A diluted stock of 300 mM was prepared from the 1 M stock in 100% DMSO, and a final dilution was obtained using the extracellular solution to give a working concentration of 300 μM (1:1000, 0.1% final DMSO concentration). Stock solutions of the testing compounds (10 mM; 100% DMSO; stored at − 20 °C) were freshly prepared, as well. Further dilution of these stock solutions to a final concentration of 300 μM was performed from the 10 mM stock in 100% DMSO, and the working dilutions were performed just before the experiments using the extracellular solution containing 300 μM menthol. The highest concentration tested was 300 nM, with serial dilutions (1:10). DMSO was balanced to keep it constant throughout all the solutions in the same experiment (0.2% final DMSO concentration). Standard whole-cell voltage clamp experiments were performed at room temperature using the multihole technology. For the voltage clamp experiments on human TRPM8, data were sampled at 2 kHz. After establishment of the seal and the passage in the whole cell configuration, the cells were subjected to a voltage ramp (20 ms step at − 60 mV; 100 ms ramp − 60/ + 100 mV; 20 ms step at + 100 mV; return to − 60 mV) every 4 s. The antagonistic effect on human TRPM8 current of target compounds was evaluated after application of the agonist (menthol, 300 μM), in the absence or presence of increasing concentrations of the compound under investigation. Outward current evoked by the voltage ramp, measured in the step at + 100 mV were measured. The intracellular solution contained (mM) 135 CsCl, 10 BAPTA, 10 HEPES, 4 Na2ATP (pH 7.2 with CsOH). The extracellular solution contained (mM) 145 NaCl, 4 KCl, 1 MgCl2, 2 CaCl2, 10 HEPES, 10 glucose (pH 7.4 with NaOH). TRPM8 modulation by final compounds 3 and 6 has been previously determined by patch clamp measurements[29],[30].
A general note: The patch-clamp technique gives a direct electrical read-out from membranes.

The target in assay [2] is T1, human TRPM8. The note with it: maximal currents at 5 µM compared to L-menthol 100 µM; cited from earlier work.
Assay [3] concerns LNCaP cells. Details: method as in PMID 33288740. The settings on record: cited from earlier work.
The test system of assay [4] is LNCaP cells. Kind of assay: DNA synthesis (BrdU incorporation) in LNCaP cells. Format: cell-based, human. The note with it: 10 nM R1881, compound 1 μM. The procedure: […] Cells were fixed, permeabilized, washed and the BrdU incorporation was analysed as reported. Nuclei were stained with Hoechst and cells on coverslips were scored by IF microscopy, using a DMLB Leica (Leica) fluorescent microscope, equipped with HCX PL Apo 63 × oil objective. Different fields from each coverslip were analyzed and BrdU incorporation was calculated by the formula: percentage of BrdU-positive cells = (No. of BrdU-positive cells/No. of total cells) × 100. Data in the graphs derive from at least 1000 scored cells for each coverslip. Representative images were captured using DC480 camera (Leica) and acquired using Leica Suite software. They are representative of three different experiments.
A general note: Uptake of a labelled nucleoside into DNA is a usual measure of proliferation.

The target in assay [5] is T2, AR/TRPM8 complex (Homo sapiens, UniProt Q7Z2W7).
T2 construct: We here dissected an endogenous non-genomic mechanism of the TRPM8 channel regulation by androgens in PC cells; endogenous in cells; host or cells: LNCaP cells
T2 sequence (Q7Z2W7 whole entry, one chain of several): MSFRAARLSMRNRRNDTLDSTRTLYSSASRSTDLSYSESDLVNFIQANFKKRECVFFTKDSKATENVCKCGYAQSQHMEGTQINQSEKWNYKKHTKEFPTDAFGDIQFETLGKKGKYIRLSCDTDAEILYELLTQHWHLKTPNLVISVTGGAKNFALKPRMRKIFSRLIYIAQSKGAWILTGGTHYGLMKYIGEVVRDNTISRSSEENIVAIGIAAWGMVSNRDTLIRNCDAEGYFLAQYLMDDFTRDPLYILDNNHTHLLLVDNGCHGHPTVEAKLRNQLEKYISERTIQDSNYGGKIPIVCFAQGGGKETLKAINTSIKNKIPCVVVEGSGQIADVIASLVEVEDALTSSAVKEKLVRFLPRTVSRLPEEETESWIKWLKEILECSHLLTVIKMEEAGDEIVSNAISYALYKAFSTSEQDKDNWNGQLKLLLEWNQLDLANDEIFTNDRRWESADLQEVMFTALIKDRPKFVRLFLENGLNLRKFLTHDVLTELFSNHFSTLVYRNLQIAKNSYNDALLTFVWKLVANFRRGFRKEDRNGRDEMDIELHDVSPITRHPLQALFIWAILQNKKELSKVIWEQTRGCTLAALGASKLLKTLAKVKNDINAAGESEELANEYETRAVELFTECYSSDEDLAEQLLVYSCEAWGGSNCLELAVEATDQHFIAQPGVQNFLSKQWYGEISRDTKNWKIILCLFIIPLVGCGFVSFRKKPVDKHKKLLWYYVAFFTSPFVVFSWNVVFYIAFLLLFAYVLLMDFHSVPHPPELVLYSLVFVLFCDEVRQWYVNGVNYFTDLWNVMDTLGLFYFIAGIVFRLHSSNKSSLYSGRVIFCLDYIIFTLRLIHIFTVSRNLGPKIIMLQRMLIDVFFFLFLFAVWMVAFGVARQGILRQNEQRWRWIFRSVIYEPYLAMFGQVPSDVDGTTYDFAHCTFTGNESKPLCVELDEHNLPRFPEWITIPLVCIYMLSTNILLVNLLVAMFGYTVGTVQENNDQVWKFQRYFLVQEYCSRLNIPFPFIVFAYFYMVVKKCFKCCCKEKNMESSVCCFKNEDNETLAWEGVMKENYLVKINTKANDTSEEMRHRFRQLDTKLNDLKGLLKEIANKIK
Kind of assay: Co-IP of AR with TRPM8 in LNCaP cells. It is filed as cell-based. The note with it: for AR, Average (n=3) / TRPM8, Average (n=3): Fig 6e, R1881 + enz 10 μM. An excerpt:
(§1) All performed as reported. The mouse monoclonal anti-AR (441; Santa Cruz) antibody was used in Co-Ip or WB approaches. TRPM8 was detected using the rabbit polyclonal anti-TRPM8 (NBP1-97311; Novus Biological). […] The rabbit polyclonal anti-ERK (C-14; Santa Cruz), antibody was used to detect total ERK. FAK and P-Tyr397 FAK were detected using the mouse monoclonal anti-FAK (Clone 77/610077 BD Transduction Laboratories) or anti P-Tyr397 FAK (Clone 14/611722; BD Transduction Laboratories) antibodies, respectively. P-Tyr118 paxillin and total paxillin were detected using the rabbit polyclonal anti-P-Y118 (#2541, Cell Signaling) or the mouse monoclonal anti-paxillin (clone 349; BD Biosciences) antibodies, respectively. […] P-Tyr 416 Src and Src were detected using the rabbit monoclonal anti P-Tyr 416 Src (#6943; Cell Signaling) or the mouse monoclonal anti Src (Calbiochem) antibodies, respectively. ERα and ERβ were detected using the rabbit polyclonal anti-ERα (543; Santa Cruz) or anti-ERβ (Upstate Biotechnology, U.S.A.) antibodies. Cyclin D1, p27 and Cdk4 were stained using the mouse monoclonal anti-cyclin D1 (clone AM29; from Zymed Laboratories Inc.), the rabbit polyclonal anti-p27 (C-19; Santa Cruz) or anti Cdk-4 (c-22; Santa Cruz) antibodies, respectively. The mouse monoclonal anti-tubulin (Sigma-Aldrich) antibody was used to detect tubulin. The ECL system (GE Healthcare) was employed to reveal immune-reactive proteins. Densitometric analysis of WB was performed by using Image J Software (https://imagej.nih.gov/ij).

The test system of assay [6] is TRPM8. In words: Western blot of TRPM8 in LNCaP lysate proteins. Format: cell-based, human. The note with it: Fig 6e, R1881 + enz 10 μM.
Text: as §1

For assay [7], the system named is AR. Kind of assay: Western blot of AR in LNCaP lysate proteins. Format: cell-based, human. The note with it: Fig 6e, R1881 + enz 10 μM.
Text: as §1
For orientation: Immunoblotting shows a protein as a band on a membrane.

Assay [8] deals with FAK, paxillin, ERK, RSK and Src tyrosine kinase. In words: Western blot of androgen-induced rapid actions in LNCaP cells (Fig. 6c). It is filed as cell-based, human. The settings on record: 10 nM R1881, 10 min, enzalutamide 10 μM.
Text: as §1

The subject of assay [9] is PSA. Kind of assay: PSA secretion (ELISA) from LNCaP cells. Format: cell-based, human. The note with it: enzalutamide 10 μM. How it is done:
It was done in culture medium using the PSA ELISA kit (Abnova-Taiwan Corporation, Taiwan), according to the manufacturer’s instructions. Released PSA was analyzed at 450 nm using the EnSpire Multimode Plate Reader (Perkin-Elmer, U.S.A.).

In assay [10] the test system is C4-2B cells. In words: DNA synthesis (BrdU incorporation) in C4-2B cells. The settings on record: cycling cells, 18 h, 10 μM. It is filed as cell-based, human. The procedure:
Cells on coverslips were pulsed in vivo with BrdU (Sigma-Aldrich; at 100 μM, final concentration) and left unchallenged or challenged with 10 nM R1881 for 18 h, in the absence or presence of the indicated compounds. Cells were fixed, permeabilized, washed and the BrdU incorporation was analysed as reported. Nuclei were stained with Hoechst and cells on coverslips were scored by IF microscopy, using a DMLB Leica (Leica) fluorescent microscope, equipped with HCX PL Apo 63 × oil objective. Different fields from each coverslip were analyzed and BrdU incorporation was calculated by the formula: percentage of BrdU-positive cells = (No. of BrdU-positive cells/No. of total cells) × 100. Data in the graphs derive from at least 1000 scored cells for each coverslip. Representative images were captured using DC480 camera (Leica) and acquired using Leica Suite software. They are representative of three different experiments.

The mark [11] stands for this setting: fourth group of list (probably IP anti-AR).

As usually defined, the IC50 is the midpoint of a concentration-inhibition curve.

Where two headings read alike, the source gives them in different places.

T1 sequence (Q7Z2W7 whole entry): as the sequence (Q7Z2W7 whole entry, one chain of several) above

As for `O=[N+]([O-])c1ccc(Sc2[nH]c3ccccc3c2CCNCc2ccc(Oc3ccccc3)cc2)c([N+](=O)[O-])c1` [Compound 5], the IC50 is 0.34 ± 0.026 µM in [1] (300 µM menthol-evoked currents, read-out: Potency IC50) and 0.204 to 0.34 µM in assay [1] (TRPM8 antagonist, menthol-evoked currents, one range for both compounds, read-out: IC50). In assay [1], the “inhibitory effect on menthol-evoked TRPM8 currents” value is given as “concentration-dependent”.

Take `c1ccc(Oc2ccc(CNCCc3c[nH]c4ccccc34)cc2)cc1` [Compound 3]: the “% Efficacy” value in [2] is 100.0 ±8.4%.

For the compound `COc1ccc(NC(=O)[C@@H]2C[C@H](C)CC[C@H]2C(C)C)cc1` [WS-12], in assay [3], the “viability of LNCaP cells” value was “slightly modify”.

In the case of `Cn1cc(CNCCc2ccc(-c3ccccc3)cc2)c2cc(CNc3ccc(F)cc3)ccc21` [Compound 9], the IC50 in assay [1] (TRPM8 antagonist, read-out: IC50) was 5 µM. The “inhibitory effect on menthol-evoked TRPM8 currents” value in assay [1] is given as “concentration-dependent”. In addition, in [4], the “inhibitory effect on R1881-stimulated DNA synthesis, compared with 3 and 5” value was “stronger”.

Regarding `CNC(=O)c1ccc(N2C(=S)N(c3ccc(C#N)c(C(F)(F)F)c3)C(=O)C2(C)C)cc1F` [Enzalutamide], in assay [5] (10 nM R1881, 10 min, enzalutamide 10 μM), the “androgen-induced AR/TRPM8 complex assembly” value is recorded as “perturbed”. The “AR, Average (n=3)” value in assay [5] (setting [11]) was 1,1; in assay [5] (second group of list) it was 0,1; in assay [5] (third group of list) it was 1; in assay [7] it was 1,1. Moreover, the “TRPM8, Average (n=3)” value in assay [5] (setting [11]) is reported as 0,3; in assay [5] (second group of list) it was 0,1; in assay [5] (third group of list), 0; in assay [6], 1,1. Also, the “androgen-elicited activation of FAK, paxillin, ERK, RSK and Src” value in assay [8] was “impaired at similar extent”. The “androgen-induced PSA secretion” value in assay [9] (R1881, 48 h) is recorded as “strongly inhibited”. Further, the “PSA secretion when used alone” value in [9] (no R1881) is “Neither the two TRPM8 antagonists, nor enzalutamide did modify such response”. Besides, the BrdU incorporation entry in assay [10] was “did not observe any effect”.

Values taken from article PMC8636514, “Therapeutic potential of TRPM8 antagonists in prostate cancer” (Scientific Reports, 2021).
